Source: ChEMBL document CHEMBL1255373, “In vitro antibacterial activity of CE-156811, a novel analog derived from hygromycin A” (2008)
Values after ≈ are worked out from the molar mass of the structure shown.

Key:
Assay type in all cases: functional
Citrobacter koseri = experiment: Antibacterial activity against Citrobacter diversus clinical isolate by broth microdilution method
Listeria monocytogenes = experiment: Antibacterial activity against Listeria monocytogenes clinical isolate by broth microdilution method
Enterococcus faecalis [1] = experiment: Antibacterial activity against […] Enterococcus faecalis ATCC 29212 by broth microdilution method
Staphylococcus aureus [2] = experiment: Antibacterial activity against glycopeptide-intermediate Staphylococcus aureus clinical isolate by broth microdilution method
[3] = tested on: Stenotrophomonas maltophilia; experiment: Antibacterial activity against Stenotrophomonas maltophilia clinical isolate by broth microdilution method
Escherichia coli = experiment: Antibacterial activity against Escherichia coli clinical isolate by broth microdilution method
Proteus mirabilis = experiment: Antibacterial activity against Proteus mirabilis clinical isolate by broth microdilution method
Serratia marcescens = experiment: Antibacterial activity against Serratia marcescens clinical isolate by broth microdilution method
Citrobacter freundii = experiment: Antibacterial activity against Citrobacter freundii clinical isolate by broth microdilution method
[4] = tested on: Staphylococcus epidermidis; experiment: Antibacterial activity against methicillin-susceptible Staphylococcus epidermidis clinical isolate by broth microdilution method
Staphylococcus aureus [5] = experiment: Antibacterial activity against […] Staphylococcus aureus ATCC 29213 by broth microdilution method
Corynebacterium sp. = experiment: Antibacterial activity against Corynebacterium sp. by broth microdilution method
Enterococcus faecium [6] = experiment: Antibacterial activity against vancomycin-resistant Enterococcus faecium 03B1022 by broth microdilution method
Staphylococcus aureus [7] = experiment: Antibacterial activity against methicillin-resistant Staphylococcus aureus clinical isolate by broth microdilution method
Enterococcus faecium [8] = experiment: Antibacterial activity against vancomycin-resistant Enterococcus faecium clinical isolate by broth microdilution method
Staphylococcus aureus [9] = experiment: Antibacterial activity against linezolid-resistant Staphylococcus aureus 01A1220 by broth microdilution method
Enterococcus faecium [10] = experiment: Antibacterial activity against linezolid-resistant Enterococcus faecium 03B1078 by broth microdilution method
Morganella morganii = experiment: Antibacterial activity against Morganella morganii clinical isolate by broth microdilution method
Enterococcus faecalis [11] = experiment: Antibacterial activity against vancomycin-resistant Enterococcus faecalis clinical isolate by broth microdilution method
Klebsiella oxytoca = experiment: Antibacterial activity against Klebsiella oxytoca clinical isolate by broth microdilution method
Staphylococcus aureus [12] = experiment: Bacteriostatic activity against methicillin-resistant Staphylococcus aureus 01A1095 assessed as log reduction in bacterial growth at 1 to 8 times MIC after 24 hrs
Shigella sp. = experiment: Antibacterial activity against Shigella sp. by broth microdilution method
Legionella pneumophila = experiment: Antibacterial activity against Legionella pneumophila clinical isolate by broth microdilution method
Streptococcus pneumoniae [13] = experiment: Antibacterial activity against penicillin-nonsusceptible Streptococcus pneumoniae clinical isolate by broth microdilution method
Enterococcus faecium [14] = experiment: Antibacterial activity against linezolid-resistant Enterococcus faecium 03B1076 by broth microdilution method
Enterococcus faecium [15] = experiment: Antibacterial activity against linezolid-resistant Enterococcus faecium 03B1077 by broth microdilution method
Burkholderia cepacia = experiment: Antibacterial activity against Burkholderia cepacia clinical isolate by broth microdilution method
Enterococcus faecium [16] = experiment: Antibacterial activity against linezolid-resistant Enterococcus faecium 03B1074 by broth microdilution method
Staphylococcus aureus [17] = experiment: Antibacterial activity against linezolid-resistant Staphylococcus aureus 01A1221 by broth microdilution method
Enterococcus faecium [18] = experiment: Antibacterial activity against linezolid-resistant Enterococcus faecium 03B1073 by broth microdilution method
Haemophilus influenzae = experiment: Antibacterial activity against Haemophilus influenzae clinical isolate by broth microdilution method
Klebsiella aerogenes = experiment: Antibacterial activity against Enterobacter aerogenes clinical isolate by broth microdilution method
Pseudomonas aeruginosa = experiment: Antibacterial activity against Pseudomonas aeruginosa clinical isolate by broth microdilution method
Acinetobacter sp. = experiment: Antibacterial activity against Acinetobacter sp. by broth microdilution method
Providencia rettgeri = experiment: Antibacterial activity against Providencia rettgeri clinical isolate by broth microdilution method
Neisseria sp. = experiment: Antibacterial activity against Neisseria sp. by broth microdilution method
Proteus vulgaris = experiment: Antibacterial activity against Proteus vulgaris clinical isolate by broth microdilution method
Streptococcus pyogenes [19] = experiment: Antibacterial activity against Streptococcus pyogenes clinical isolate by broth microdilution method
Staphylococcus aureus [20] = experiment: Antibacterial activity against methicillin-resistant Staphylococcus aureus 01A1095 by broth microdilution method
Streptococcus pneumoniae [21] = experiment: Bacteriostatic activity against Streptococcus pneumoniae 02J1046 assessed as log reduction in bacterial growth at 1 to 8 times MIC after 24 hrs
Enterococcus faecalis [22] = experiment: Antibacterial activity against vancomycin-susceptible Enterococcus faecalis clinical isolate by broth microdilution method
Streptococcus pyogenes [23] = experiment: Antibacterial activity against Streptococcus pyogenes 02C0203 by broth microdilution method
Klebsiella pneumoniae [24] = experiment: Antibacterial activity against Klebsiella pneumoniae clinical isolate by broth microdilution method
Klebsiella pneumoniae [25] = experiment: Antibacterial activity against extended-spectrum beta-lactamase producing Klebsiella pneumoniae clinical isolate by broth microdilution method
Enterococcus faecium [26] = experiment: Antibacterial activity against linezolid-resistant Enterococcus faecium 03B1075 by broth microdilution method
Enterococcus faecium [27] = experiment: Bacteriostatic activity against vancomycin resistant Enterococcus faecium 03B1022 assessed as log reduction in bacterial growth at 1 to 8 times MIC after 24 hrs
Streptococcus pyogenes [28] = experiment: Bacteriostatic activity against Streptococcus pyogenes 02C0203 assessed as log reduction in bacterial growth at 1 to 8 times MIC after 24 hrs
Enterobacter cloacae = experiment: Antibacterial activity against Enterobacter cloacae clinical isolate by broth microdilution method
Moraxella catarrhalis = experiment: Antibacterial activity against Moraxella catarrhalis clinical isolate by broth microdilution method
Streptococcus pneumoniae [29] = experiment: Antibacterial activity against penicillin-susceptible Streptococcus pneumoniae clinical isolate by broth microdilution method
Enterococcus faecalis [30] = experiment: Antibacterial activity against linezolid-resistant Enterococcus faecalis 03A1128 by broth microdilution method
Salmonella sp. = experiment: Antibacterial activity against Salmonella sp. by broth microdilution method
Staphylococcus aureus [31] = experiment: Antibacterial activity against methicillin-susceptible Staphylococcus aureus clinical isolate by broth microdilution method
Staphylococcus = experiment: Antibacterial activity against coagulase-negative Staphylococcus clinical isolate by broth microdilution method
Streptococcus pneumoniae [32] = experiment: Antibacterial activity against Streptococcus pneumoniae 02J1046 by broth microdilution method
Enterococcus faecium [33] = experiment: Antibacterial activity against vancomycin-susceptible Enterococcus faecium clinical isolate by broth microdilution method

For `C/C(=C\c1cc(F)c(OC[C@H](F)C2CC2)cc1F)C(=O)N[C@@H]1[C@H](O)[C@@H](O)[C@H]2OCO[C@H]2[C@@H]1O`, the MIC50 (Citrobacter koseri) was over 64 µg/mL, the MIC90 (Citrobacter koseri) was over 64 µg/mL and the MIC (Listeria monocytogenes) was 4 µg/mL (≈ 8.45 µM). For the same compound, the MIC50 (Listeria monocytogenes) was 4 µg/mL (≈ 8.45 µM), the MIC90 (Listeria monocytogenes) was 8 µg/mL (≈ 16.9 µM) and the MIC (Enterococcus faecalis [1]) was 1 µg/mL (≈ 2.11 µM). The MIC (Staphylococcus aureus [2]) was 0.125 µg/mL (≈ 0.264 µM), the MIC50 [3] was over 64 µg/mL and the MIC90 [3] was over 64 µg/mL. For the same compound, the MIC50 (Escherichia coli) was over 64 µg/mL, the MIC90 (Escherichia coli) was over 64 µg/mL and the MIC50 (Proteus mirabilis) was over 64 µg/mL. The MIC90 (Proteus mirabilis) was over 64 µg/mL, the MIC50 (Serratia marcescens) was over 64 µg/mL and the MIC90 (Serratia marcescens) was over 64 µg/mL. For the same compound, the MIC50 (Citrobacter freundii) was over 64 µg/mL, the MIC90 (Citrobacter freundii) was over 64 µg/mL and the MIC50 [4] was 0.12 µg/mL (≈ 0.253 µM). The MIC90 [4] was 0.25 µg/mL (≈ 0.528 µM), the MIC (Staphylococcus aureus [5]) was 1 µg/mL (≈ 2.11 µM) and the MIC50 (Corynebacterium sp.) was 1 µg/mL (≈ 2.11 µM). For the same compound, the MIC90 (Corynebacterium sp.) was 1 µg/mL (≈ 2.11 µM), the MIC (Enterococcus faecium [6]) was 1 µg/mL (≈ 2.11 µM) and the MIC50 (Staphylococcus aureus [7]) was 0.5 µg/mL (≈ 1.06 µM). The MIC90 (Staphylococcus aureus [7]) was 0.5 µg/mL (≈ 1.06 µM), the MIC50 (Enterococcus faecium [8]) was 1 µg/mL (≈ 2.11 µM) and the MIC90 (Enterococcus faecium [8]) was 2 µg/mL (≈ 4.22 µM). It also gave an MIC (Staphylococcus aureus [9]) of 16 µg/mL (≈ 33.8 µM), an MIC (Enterococcus faecium [10]) of 4 µg/mL (≈ 8.45 µM) and an MIC50 (Morganella morganii) of over 64 µg/mL. For the same compound, the MIC90 (Morganella morganii) was over 64 µg/mL, the MIC50 (Enterococcus faecalis [11]) was 1 µg/mL (≈ 2.11 µM) and the MIC90 (Enterococcus faecalis [11]) was 2 µg/mL (≈ 4.22 µM). The MIC50 (Klebsiella oxytoca) was over 64 µg/mL, the MIC90 (Klebsiella oxytoca) was over 64 µg/mL and the FC (Staphylococcus aureus [12]) was 1.5. It also gave an MIC50 (Shigella sp.) of over 64 µg/mL, an MIC90 (Shigella sp.) of over 64 µg/mL and an MIC50 (Legionella pneumophila) of 1 µg/mL (≈ 2.11 µM). It also gave an MIC90 (Legionella pneumophila) of 2 µg/mL (≈ 4.22 µM), an MIC50 (Streptococcus pneumoniae [13]) of 0.25 µg/mL (≈ 0.528 µM) and an MIC90 (Streptococcus pneumoniae [13]) of 0.5 µg/mL (≈ 1.06 µM). For the same compound, the MIC (Enterococcus faecium [14]) was 8 µg/mL (≈ 16.9 µM), the MIC (Enterococcus faecium [15]) was 2 µg/mL (≈ 4.22 µM) and the MIC50 (Burkholderia cepacia) was over 64 µg/mL. For the same compound, the MIC90 (Burkholderia cepacia) was over 64 µg/mL, the MIC (Enterococcus faecium [16]) was 4 µg/mL (≈ 8.45 µM) and the MIC (Staphylococcus aureus [17]) was 16 µg/mL (≈ 33.8 µM). It also gave an MIC (Enterococcus faecium [18]) of 1 µg/mL (≈ 2.11 µM), an MIC50 (Haemophilus influenzae) of 4 µg/mL (≈ 8.45 µM) and an MIC90 (Haemophilus influenzae) of 8 µg/mL (≈ 16.9 µM). The MIC50 (Klebsiella aerogenes) was over 64 µg/mL, the MIC90 (Klebsiella aerogenes) was over 64 µg/mL and the MIC50 (Pseudomonas aeruginosa) was over 64 µg/mL. The MIC90 (Pseudomonas aeruginosa) was over 64 µg/mL, the MIC50 (Acinetobacter sp.) was over 64 µg/mL and the MIC90 (Acinetobacter sp.) was over 64 µg/mL. The MIC50 (Providencia rettgeri) was over 64 µg/mL, the MIC90 (Providencia rettgeri) was over 64 µg/mL and the MIC50 (Neisseria sp.) was 4 µg/mL (≈ 8.45 µM). The MIC90 (Neisseria sp.) was 8 µg/mL (≈ 16.9 µM), the MIC50 (Proteus vulgaris) was over 64 µg/mL and the MIC90 (Proteus vulgaris) was over 64 µg/mL. The MIC (Streptococcus pyogenes [19]) was 0.5 µg/mL (≈ 1.06 µM), the MIC50 (Streptococcus pyogenes [19]) was 0.5 µg/mL (≈ 1.06 µM) and the MIC90 (Streptococcus pyogenes [19]) was 1 µg/mL (≈ 2.11 µM). It also gave an MIC (Staphylococcus aureus [20]) of 1 µg/mL (≈ 2.11 µM), an FC (Streptococcus pneumoniae [21]) of 1.5 and an MIC50 (Enterococcus faecalis [22]) of 1 µg/mL (≈ 2.11 µM). It also gave an MIC90 (Enterococcus faecalis [22]) of 2 µg/mL (≈ 4.22 µM), an MIC (Streptococcus pyogenes [23]) of 0.25 µg/mL (≈ 0.528 µM) and an MIC50 (Klebsiella pneumoniae [24]) of over 64 µg/mL. For the same compound, the MIC90 (Klebsiella pneumoniae [24]) was over 64 µg/mL, the MIC50 (Klebsiella pneumoniae [25]) was over 64 µg/mL and the MIC90 (Klebsiella pneumoniae [25]) was over 64 µg/mL. For the same compound, the MIC (Enterococcus faecium [26]) was 4 µg/mL (≈ 8.45 µM), the FC (Enterococcus faecium [27]) was 1.5 and the FC (Streptococcus pyogenes [28]) was 1.5. The MIC50 (Enterobacter cloacae) was over 64 µg/mL, the MIC90 (Enterobacter cloacae) was over 64 µg/mL and the MIC50 (Moraxella catarrhalis) was 2 µg/mL (≈ 4.22 µM). It also gave an MIC90 (Moraxella catarrhalis) of 4 µg/mL (≈ 8.45 µM), an MIC50 (Streptococcus pneumoniae [29]) of 0.25 µg/mL (≈ 0.528 µM) and an MIC90 (Streptococcus pneumoniae [29]) of 0.5 µg/mL (≈ 1.06 µM). For the same compound, the MIC (Enterococcus faecalis [30]) was 16 µg/mL (≈ 33.8 µM), the MIC50 (Salmonella sp.) was over 64 µg/mL and the MIC90 (Salmonella sp.) was over 64 µg/mL. For the same compound, the MIC50 (Staphylococcus aureus [31]) was 0.5 µg/mL (≈ 1.06 µM), the MIC90 (Staphylococcus aureus [31]) was 1 µg/mL (≈ 2.11 µM) and the MIC50 (Staphylococcus) was 1 µg/mL (≈ 2.11 µM). For the same compound, the MIC90 (Staphylococcus) was 2 µg/mL (≈ 4.22 µM), the MIC (Streptococcus pneumoniae [32]) was 0.125 µg/mL (≈ 0.264 µM) and the MIC50 (Enterococcus faecium [33]) was 1 µg/mL (≈ 2.11 µM). The MIC90 (Enterococcus faecium [33]) was 2 µg/mL (≈ 4.22 µM).
